Like-named read-outs stand apart in the source and are kept apart here.
Tests used:
U937 cells = test: Inhibitory activity against programmed necroptosis of U937 cells induced by TNF-α; format: cell-based, human; settings: 100 ng/ml human TNF-α and 25 μM Q-VD-Oph, 48 hours, CellTiter-Glo survival rate, read-out: U937 IC50
Procedure: The U937 cell strain which was used in the following Testing Examples was derived from ATCC, No.: CRL-1593.2, batch No.: 63479999, culture medium: RPMI-1640+10% FBS.
The compound was dissolved in DMSO to prepare a 10 mM stock solution. The stock solution was diluted in 3.16 folds with DMSO to a series of gradient concentrations. Then, the resultant solution was diluted in 250 folds with a culture medium to prepare a working solution. The U937 cells were inoculated in a 384-well plate at 5000/well. The compound at respective concentration was added to each of the cells, and was mixed with the cells homogeneously. 100 ng/ml human TNF-α and 25 μM Q-VD-Oph were added simultaneously to induce programmed necroptosis of the cells. The final concentration of DMSO was 2%. The cells were placed in the incubator at 37° C. and 5% CO2 for further culture of 48 hours. Celltiter-Glo reagent was used for detection. After adequate pyrolysis reaction, the chemiluminescence readout value was recorded by a microplate reader. The survival rate was calculated from the detection results using the equation as follows: SR (%)=(RLU compound−RLU blank)/(RLU high control−RLU blank)×100%. The survival rate was plotted against the final concentration of respective compound using a 4-parameter fitting to calculate the inhibitory IC50 of the compound against programmed necroptosis of cells induced by TNF-a.

RIPK1 enzyme = target: T1, RIPK1 enzyme (Homo sapiens, UniProt Q13546); test: Inhibitory activity of the compounds against RIPK1 enzyme (33P-ATP, MBP substrate); format: biochemical; settings: 36 nM RIPK1, 0.33 mg/ml MBP, 155 μM P33-labeled ATP, room temperature 2 hours
T1 construct: purchased Eurofins 16-022
T1 sequence (Q13546 1-671): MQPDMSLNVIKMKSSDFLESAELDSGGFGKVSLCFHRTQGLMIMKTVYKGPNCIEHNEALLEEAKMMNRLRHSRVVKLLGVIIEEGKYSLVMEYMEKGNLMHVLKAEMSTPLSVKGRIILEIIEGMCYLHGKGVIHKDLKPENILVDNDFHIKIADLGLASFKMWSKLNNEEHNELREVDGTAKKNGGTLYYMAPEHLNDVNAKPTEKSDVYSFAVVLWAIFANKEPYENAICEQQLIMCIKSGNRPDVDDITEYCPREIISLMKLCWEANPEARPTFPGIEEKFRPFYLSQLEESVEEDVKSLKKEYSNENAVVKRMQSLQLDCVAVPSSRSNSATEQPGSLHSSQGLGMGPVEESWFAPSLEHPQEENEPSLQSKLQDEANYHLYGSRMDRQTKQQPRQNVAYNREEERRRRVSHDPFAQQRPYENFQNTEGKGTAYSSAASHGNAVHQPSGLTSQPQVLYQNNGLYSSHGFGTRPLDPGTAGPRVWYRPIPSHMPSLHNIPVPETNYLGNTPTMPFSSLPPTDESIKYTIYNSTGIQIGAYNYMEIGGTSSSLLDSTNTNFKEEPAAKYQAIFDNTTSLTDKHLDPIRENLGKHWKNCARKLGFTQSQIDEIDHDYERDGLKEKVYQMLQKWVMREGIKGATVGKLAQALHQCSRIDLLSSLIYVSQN
Procedure: The test compound was dissolved in DMSO to prepare a 10 mM stock solution. The stock solution was diluted in 3.16 folds with DMSO to a series of gradient concentrations. Then, the resultant solution was diluted in 50 folds with MOPS buffer pH 7.0 to prepare a working solution. The working solution was mixed with 36 nM RIPK1 (final concentration) and 0.33 mg/ml substrate MBP homogeneously. Thereafter, 10 mM magnesium ion and 155 μM P^33 isotopically labeled ATP were added for the reaction. The final concentration of DMSO was 2%. After the reaction was carried out at room temperature for 2 hours phosphoric acid was added to terminate the reaction. The final reaction system was tested using a liquid scintillation counter after treatment. The result obtained by subtracting a blank control from the tested value was converted to activity percentage as compared to the readout value of control group. The activity percentage was plotted against the final concentration of respective compound using a 4-parameter fitting to obtain the inhibitory IC50 of the compound against RIPK1 enzyme.

L929 cells = test: Inhibitory activity against programmed necroptosis of L929 cells induced by TNF-α; format: cell-based; settings: Mus musculus, 30 ng/ml murine TNF-α and 15 μM Z-VAD, 6 hours, CellTiter-Glo survival rate, read-out: L929 AbIC50
Procedure: The compound was dissolve in DMSO to prepare a 10 mM stock solution. The stock solution was diluted in 3.16 folds with DMSO to a series of gradient concentrations. Then, the resultant solution was diluted in 100 folds with a culture medium to prepare a working solution. The L929 cells were inoculated in a 384-well plate at 10000/well. The compound at respective concentration was added to each of the wells, and was mixed with the cells homogeneously. 30 ng/ml murine TNF-α and 15 μM Z-VAD were added simultaneously to induce programmed necroptosis of the cells. The final concentration of DMSO was 2%. The cells were placed in an incubator at 37° C. and 5% CO2 for further culture of 6 hours. CellTiter-Glo reagent was used for detection. After adequate pyrolysis reaction, the chemiluminescence readout value was recorded by a microplate reader. The survival rate was calculated from the detection results using the equation as follows: SR (%)=(RLU compound −RLU blank)/(RLU high control−RLU blank)×100%. The survival rate was plotted against the final concentration of respective compound using a 4-parameter fitting to calculate the inhibitory IC50 of the compound against programmed necroptosis of cells induced by TNF-a.

Compound	IC50 (U937 cells; Homo sapiens, U-937, 48 h) [nM]	IC50 (RIPK1 enzyme) [nM]	IC50 (L929 cells) [nM]	IC50 (U937 cells) [nM]
COc1ncc(-c2ccc3nc(NC(=O)C4CC4)sc3c2)cc1C(=O)N[C@@H](C)c1ccccc1OC(F)(F)F (single isomer, unassigned) [Compound Z6-1]	3	60		
Cn1ncc2c(-c3ccn4nc(N)nc4c3)cc(C(=O)N3CCCC(Cc4ccc(F)cc4)C3)cc21 (stereo not shown) [Compound Z29, (4-(2-amino-[1,2,4]triazolo[1,5-a]pyridin-7-yl)-1-methyl-1H-indazol-6-yl)(3-(4-fluorobenzyl)piperidin-1-yl)methanone]	7		12	
COc1ncc(-c2ccc3nc(NC(C)=O)sc3c2)cc1C(=O)NC(C)c1ccccc1OC(F)(F)F (single isomer, unassigned) [Compound Z5, 5-(2-acetylaminobenzothiazol-6-yl)-2-methoxy-N-(1-(2-(trifluoromethoxy)phenyl)ethyl)nicotinamide]		29		15
COc1ncc(-c2ccc3nc(N)sc3c2)cc1C(=O)NCc1cc(F)cc(F)c1OCC(C)C [Compound Z49, 5-(2-aminobenzo[d]thiazol-6-yl)-N-(3,5-difluoro-2-isobutoxybenzyl)-2-methoxynicotinamide]	6		37	
COc1ncc(-c2ccc3nc(NC(C)=O)sc3c2)cc1C(=O)NC(C)c1ccccc1OC(F)(F)F (single isomer, unassigned) [Compound Z5-1]		28		5
COc1ncc(-c2ccc3nc(NC(=O)C4CC4)sc3c2)cc1C(=O)NC(C)c1ccccc1OC(F)(F)F (single isomer, unassigned) [Compound Z6, 5-(2-(cyclopropylcarbonylamino)benzo[d]thiazol-6-yl)-2-methoxy-N-(1-(2-(trifluoromethoxy)phenyl)ethyl)nicotinamide]	8	36		
Cn1ncc2c(-c3ccn4nc(N)nc4c3)cc(C(=O)NCc3cc(F)ccc3OC3CCCC3)cc21 [Compound Z31, 4-(2-amino-[1,2,4]triazolo[1,5-a]pyridin-7-yl)-N-(2-(cyclopentyloxy)-5-fluorobenzyl)-1-methyl-1H-indazole-6-carboxamide]	2		41	
Nc1nc2ccc(-c3cnc4c(c3)C(=O)N(Cc3cc(OC(F)(F)F)ccc3F)CC4)cc2s1 [Compound Z55, 3-(2-aminobenzo[d]thiazol-6-yl)-6-(2-fluoro-5-(trifluoromethoxy)benzyl)-7,8-dihydro-1,6-naphthyridin-5(6H)-one]	8	39		
Cc1ncc(C(=O)NC(C)c2ccccc2OC(F)(F)F)cc1-c1ccc2nc(N)sc2c1 (stereo not shown) [Compound Z10, 5-(2-aminobenzo[d]thiazol-6-yl)-6-methyl-N-(1-(2-(trifluoromethoxy)phenyl)ethyl)nicotinamide]		64		
COc1ncc(-c2ccc3nc(N)sc3c2)cc1C(=O)NCc1cccc(OC(F)(F)F)c1 [Compound Z4, 5-(2-aminobenzo[d]thiazol-6-yl)-2-methoxy-N-(3-(trifluoromethoxy)benzyl)nicotinamide]		17		
Nc1nc2ccc(-c3cnc4c(c3)C(=O)N(Cc3cc(C(F)(F)F)ccc3F)CC4)cc2s1 [Compound Z65, 3-(2-aminobenzo[d]thiazol-6-yl)-6-(2-fluoro-5-(trifluoromethyl)benzyl)-7,8-dihydro-1,6-naphthyridin-5(6H)-one]	48	43		
COc1ncc(-c2ccc3nc(N)sc3c2)cc1C(=O)NCc1ccccc1OC(F)(F)F [Compound Z2, 5-(2-aminobenzo[d]thiazol-6-yl)-2-methoxy-N-(2-(trifluoromethoxy)benzyl)nicotinamide]	38	23		
CC(NC(=O)c1cncc(-c2ccc3nc(N)sc3c2)c1)c1ccccc1OC(F)(F)F (stereo not shown) [Compound Z9, 5-(2-aminobenzo[d]thiazol-6-yl)-N-(1-(2-(trifluoromethoxy)phenyl)ethyl)nicotinamide]		60		
COc1ncc(-c2ccc3nc(N)sc3c2)cc1C(=O)NCc1ccccc1OC(C)C [Compound Z50, 5-(2-aminobenzo[d]thiazol-6-yl)-N-(2-isopropoxybenzyl)-2-methoxynicotinamide]	49			
CC(NC(=O)c1cnc(Cl)c(-c2ccc3nc(N)sc3c2)c1)c1ccccc1OC(F)(F)F (stereo not shown) [Compound Z8, 5-(2-aminobenzo[d]thiazol-6-yl)-6-chloro-N-(1-(2-(trifluoromethoxy)phenyl)ethyl)nicotinamide]	88			
COc1ncc(-c2ccc3nc(N)sc3c2)cc1C(=O)NCc1ccccc1OC1CCOC1 (stereo not shown) [Compound Z53, 5-(2-aminobenzo[d]thiazol-6-yl)-2-methoxy-N-(2-((tetrahydrofuran-3-yl)oxy)benzyl)nicotinamide]	42			
CC(NC(=O)c1cc(-c2ccc3nc(N)sc3c2)cnc1N)c1ccccc1OC(F)(F)F (stereo not shown) [Compound Z46, 2-amino-5-(2-aminobenzo[d]thiazol-6-yl)-N-(1-(2-(trifluoromethoxy)phenyl)ethyl)nicotinamide]	76			
COc1ncc(-c2ccc3nc(NC(=O)C4CC4)sc3c2)cc1C(=O)NC(C)c1ccccc1OC(F)(F)F (stereo not shown) [Compound Z56, 5-(2-(cyclopropylformamido)benzo[d]thiazol-6-yl)-2-methoxy-N-(1-(2-(trifluoromethoxy)phenyl)ethyl)nicotinamide]	8	36		
COc1ncc(-c2ccc3nc(N)sc3c2)cc1C(=O)N1CCC[C@H](Cc2ccc(F)cc2)C1 [Compound Z17-1]	9		10	
COc1ncc(-c2ccc3nc(N)sc3c2)cc1C(=O)NC(C)c1cccc(OC(F)(F)F)c1 (stereo not shown) [Compound Z3, 5-(2-aminobenzo[d]thiazol-6-yl)-2-methoxy-N-(1-(3-(trifluoromethoxy)phenyl)ethyl)nicotinamide]		32		
COc1ncc(-c2ccc3nc(N)sc3c2)cc1C(=O)NCc1c(F)cccc1OC1CCCC1 [Compound Z18, 5-(2-aminobenzo[d]thiazol-6-yl)-N-(2-(cyclopentyloxy)-6-fluorobenzyl)-2-methoxynicotinamide]	4			
COc1ncc(C(=O)NC(C)c2ccccc2OC(F)(F)F)cc1-c1ccc2nc(N)sc2c1 (stereo not shown) [Compound Z7, 5-(2-aminobenzo[d]thiazol-6-yl)-6-methoxy-N-(1-(2-(trifluoromethoxy)phenyl)ethyl)nicotinamide]		84		

Source: US20220177462A1, “SUBSTITUTED HETEROCYCLIC AMIDE COMPOUND AND PREPARATION METHOD THEREFOR AND PHARMACEUTICAL USE THEREOF” (GENFLEET THERAPEUTICS (SHANGHAI) INC., priority 2019, published 2022)
